Experimental data from US7166296B2, “Pharmaceutical formulations and ligands for use therein; mimetics for UEA-1” (Sarlan, Ltd., priority 2001, dated 2007).

Columns and labels:
Parameters in all cases: species or system human
[1] = system: UEA-1 binding sites on Caco-2 cell membrane preparations; experiment: Single tier competition assay: inhibition of biotinylated UEA-1 binding, compound and biotinylated UEA-1 incubated together; settings: library MSI 27; for IC50: read-out: Single Tier Assay IC50
Method in brief: (§1)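 Plates coated with Caco-2 membrane preparation (10 μg/ml, carbonate buffer pH 9.6) and BSA-blocked. Single tier: compound and biotinylated UEA-1 incubated together overnight. Two tier: compound incubated overnight with membranes first, biotinylated UEA-1 added next. Bound UEA-1 detected by streptavidin-HRP/OPD, OD490.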

[2] = system: UEA-1 binding sites on Caco-2 cell membrane preparations; experiment: Competition assay of biotinylated UEA-1 binding, tier (single/two) not given; settings: tier not printed, library TPI 1066
Procedure: The epithelial cell binding ability of compounds and mixtures obtained from synthetic combinatorial libraries was determined by competition assays. These assays were set up to measure the inhibition of binding of biotinylated UEA-1 to membrane preparations of the epithelial cell line Caco-2 (colon carcinoma cells-2), by compounds and mixtures of the combinatorial libraries. This cell line is a conventional model for epithelial cells.
Two competition inhibition assays were used in this case, namely single tier and two tier assays. These assays differed from each other in that in the single tier assay, the mixtures/compounds and the biotinylated UEA-1 were incubated together with the Caco-2 cell membrane preparations, while in case of the two-tier assay, the mixture/compounds were allowed to incubate alone with the cell membranes in the absence of biotinylated UEA-1, which was added in the next step. Addition of the extra step in the two-tier assay was to ensure that the compounds inhibiting the binding of biotinylated UEA-1 to the Caco-2 cell membranes were doing so by themselves binding to surface receptors on the Caco-2 cells and not to the biotinylated UEA-1. Each assay will be described in detail.
• 1. Confluent Caco-2 cell monolayers (grown in 75 cm^2 flasks for up to 1 week at 37° C. and 5% CO2) were washed twice in Dulbecco's PBS (DPBS). • 2. Cell monolayers were treated with 10 mM EDTA-DPBS for 5–10 min at 37° C. and cells were harvested by centrifugation at 1000 rpm for 5 min. • 3. Cells were washed 3 times in DPBS. • 4. […] The cells were homogenised for 30 sec. • 6. The homogenates were centrifuged in hard walled tubes at 40,000 rpm for 45 min at 4° C. • 7. […] The supernatant was removed and stored on ice. The procedure was repeated adding the second supernatant to the first. • 8. The protein concentration was determined using e.g. a Bio-Rad protein assay. • 9. All fractions were stored at −80° C. prior to use. Single Tier Assays: • 1. 96-well microtiter plates were coated with membrane preparations of Caco-2 cells either by allowing them to incubate on the plates for 2½ hours at room temperature or by incubating them overnight at 4° C. 100 μl of 10 μg/ml (in 0.05 M carbonate buffer, pH 9.6) of membrane preparation was added to each well. • 2. The plates were flicked out, patted dry and blocked with bovine serum albumin (BSA)/DPBS (200 μl/well) for 1 to 4 hours at room temperature after which they were washed three times in water. • 3. […] Control wells were also set up in which the Caco-2 cell membrane preparations were incubated with unconjugated UEA-1. […] Following overnight incubation the plates were washed thoroughly (3–6 times). The plates were flicked out, patted dry and biotinylated UEA-1 was detected with commercial Streptavidin conjugated to horseradish peroxidase (HRP) (CalBiochem). […] The plates were left to incubate for an hour at room temperature. • 6. The plates were then washed 3–6 times and the biotin-streptavidin binding was detected by adding an HRP substrate OPD (orthophenyl diamine) to each well. 100 μl/well of this substrate at a final concentration of 1.6 mg/ml was added to each well. Before adding to the wells, this substrate was activated by addition of 50 μl of 3% H2O2 per plate and the reaction was allowed to develop in the dark. • 7. The reaction was stopped by adding 50 μl of 4 N H2SO4 to each well after approximately 5–10 minutes or when sufficient colour had developed. The OD490 (absorbance at 490 nm) of each well was measured using a conventional 96 well plate reading spectrophotometer. Two Tier Assays: • 1. 96 well plates were coated with Caco-2 cell membrane preparations in the same manner as described in the single tier assay. • 2. […] 100 μl at these final concentrations were added to each well. • 4. The plates were then left to incubate overnight, a step that would allow the mixtures and compounds to interact with the Caco-2 cell membranes without the presence of the competitor (biotinylated UEA-1) itself. • 5. […]

[3] = system: UEA-1 binding sites on Caco-2 cell membrane preparations; experiment: Two tier competition assay: compound incubated alone with membranes, biotinylated UEA-1 added in next step; settings: library MSI 27; for IC50: read-out: Two Tier Assay IC50
Method in brief: as §1

[4] = 50 μg/ml, first pair of columns
[5] = 50 μg/ml, second pair of columns
[6] = 250 μg/ml, first pair of columns
[7] = 250 μg/ml, second pair of columns

Compound	IC50 [1] [µM]	Av % Inhibition [2, 4] [%]	Av % Inhibition [2, 5] [%]	Av % Inhibition [2, 6] [%]	Av % Inhibition [2, 7] [%]	IC50 [3] [µM]	Single Tier Assay IC50 [1] [mg/L]	Two Tier Assay IC50 [3] [mg/L]
O=C(O)c1ccc(O)cc1 [compound 23, 4-Hydroxybenzoic acid]	284	52	39	21	59	284	–	–
COc1cc(C(=O)O)cc(OC)c1O [compound 25, Syringic acid]	307	−173	65	66	63	307	–	–
COc1ccc(C(=O)O)cc1OC [compound 26, 3,4-Dimethoxybenzoic acid]	163	−116	39	−2	56	112	125.00	85.62
